Source: EP4227307A1 (Genzyme Corporation, priority 2022, dated 2023)
Structures can show the parent of a compound that is named as a salt.

The compounds below were run against T1, human recombinant 6His-Nterm SHP2 full-length (Thr2-Arg593) (Homo sapiens, UniProt Q06124) (assay: SHP2 Phosphatase Assay (DiFMUP fluorescence)). Conditions: SHP2 0.2 nM pre-incubated with 100 nM bi-phosphorylated activating peptide; compound 1000-0.05 nM, 30 min pre-incubation; DiFMUP 20 µM, 45 min, room temperature; 10-concentration dose-response.
T1 construct: 6His-Nterm SHP2 full-length (Thr2-Arg593, R&D system); 6His (N); purchased R&D system
T1 sequence (Q06124 2-593): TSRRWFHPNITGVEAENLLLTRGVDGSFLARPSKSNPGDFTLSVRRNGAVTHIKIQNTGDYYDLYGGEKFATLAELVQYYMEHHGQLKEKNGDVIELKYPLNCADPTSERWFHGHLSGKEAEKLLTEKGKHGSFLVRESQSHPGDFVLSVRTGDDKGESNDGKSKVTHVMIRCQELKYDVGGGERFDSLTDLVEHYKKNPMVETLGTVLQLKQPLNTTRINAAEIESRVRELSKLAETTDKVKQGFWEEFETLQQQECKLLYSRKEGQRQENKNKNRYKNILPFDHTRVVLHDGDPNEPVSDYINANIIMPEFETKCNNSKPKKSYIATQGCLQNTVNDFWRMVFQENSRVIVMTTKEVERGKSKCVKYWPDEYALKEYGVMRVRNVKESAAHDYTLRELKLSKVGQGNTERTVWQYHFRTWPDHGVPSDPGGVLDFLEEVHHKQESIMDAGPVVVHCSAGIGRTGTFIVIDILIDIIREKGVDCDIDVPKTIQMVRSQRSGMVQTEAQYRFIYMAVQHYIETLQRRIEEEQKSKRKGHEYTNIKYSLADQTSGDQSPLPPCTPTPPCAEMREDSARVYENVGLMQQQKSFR
Type: biochemical
Procedure: Inhibition of SHP2 phosphatase activity was evaluated using human recombinant 6His-Nterm SHP2 full-length (Thr2-Arg593, R&D system), NsCs bi-phosphorylated activating peptide (NH2-LN(pY)AQLWHA(PEG8)LTI(pY)ATIRRF-Amide.acetate, Thermofischer Scientific) and DiFMUP as surrogate phosphatase substrate (Molecular Probes). All reactions were performed at room temperature in 384-well black polystyrene non-binding plate (Corning) with the assay buffer (50 mM HEPES-NaOH pH 7.2, 100 mM NaCl, 0.5 mM EDTA, 0.001% Brij35 including 0.02% BSA and 1 mM DTT added extemporaneously). SHP2 was pre-incubated at least 10 min with the activating peptide (0.2 nM and 100 nM, respectively). 10 µL of this mixture was added to the assay plate, that already contained 15 nL of the compound (1000-0.05 nM). After 30 min pre-incubation, the enzymatic reaction was initiated by the addition of 5 µL DiFMUP in assay buffer without BSA (20 µM). The reaction was stopped by the addition of 15 µL sodium pervanadate solution (100 µM) after 45 min incubation. The fluorescence signal was measured at excitation and emission wavelengths of 350 nm and 450 nm, respectively, using a Pherastar instrument (BMG-LabTech). Percentage of inhibition […] were calculated from the fluorescence signal at 450 nm of the positive and negative control using the following formula: I% = ((signal Max−signal Sample)/(signal Max−signal Min control)) × 100 [formula]
Positive control (Max): corresponds to the maximum fluorescence signal obtained in the presence of 15 nL DMSO replacing the inhibitor in the pre-incubation step.
Negative control (Min): corresponds to the minimum signal obtained in the presence of 1 µM of RMC-4550, the structure of which is shown below: [drawing 464]
The IC50 were then calculated from a dose-response curve of 10 concentrations of tested compound using the 4-parameter logistic model: I% = A + (C)/(1 + exp(−B×log(X)−M)) [formula]
The parameters A and (A+C) are the lower and upper limits, B is the slope of the curve at the inflexion point, M parameter is the logarithm of the abscissa at the inflexion point, and X is the concentration of compound.

Compound | IC50 [nM]
Cc1nccc(-c2c(C)nc(N3CCC4(CC3)[C@H](N)c3ccccc3N4C)c3ccnn23)c1Cl [Compound 156, (3R)-1'-[7-(3-chloro-2-methyl-4-pyridyl)-6-methyl-pyrazolo[1,5-a]pyrazin-4-yl]-1-methyl-spiro[indoline-2,4'-piperidine]-3-amine] | 35
Cc1cccc(-c2c(C)nc(N3CCC4(CC3)Cc3ncccc3[C@H]4N)c3ccnn23)c1C [Compound 164, (5S)-1'-[7-(2,3-dimethylphenyl)-6-methyl-pyrazolo[1,5-a]pyrazin-4-yl]spiro[5,7-dihydrocyclopenta[b]pyridine-6,4'-piperidine]-5-amine] | 7
CNc1cc(-c2c(C)nc(N3CCC4(CC3)Cc3ncccc3[C@H]4N)c3ccnn23)ccn1 [Compound 168, (5S)-1'-[6-methyl-7-[2-(methylamino)-4-pyridyl]pyrazolo[1,5-a]pyrazin-4-yl]spiro[5,7-dihydrocyclopenta[b]pyridine-6,4'-piperidine]-5-amine] | 30
COCc1cnn2c(-c3ccccc3F)c(C)nc(N3CCC4(CC3)Cc3ncccc3[C@H]4N)c12 [Compound 225, (5S)-1'-[7-(2-fluorophenyl)-3-(methoxymethyl)-6-methyl-pyrazolo[1,5-a]pyrazin-4-yl]spiro[5,7-dihydrocyclopenta[b]pyridine-6,4'-piperidine]-5-amine] | > 1000
Cc1nc(N2CCC3(CC2)Cc2c(F)cccc2[C@H]3N)c2ccnn2c1-c1cnn(C)c1C [Compound 95, (1S)-1'-[7-(1,5-dimethylpyrazol-4-yl)-6-methyl-pyrazolo[1,5-a]pyrazin-4-yl]-4-fluoro-spiro[indane-2,4'-piperidine]-1-amine formate] | 19
Cc1nc(N2CCC3(CC2)Cc2c(ccnc2CO)[C@H]3N)c2ccnn2c1-c1ccccc1F [Compound 35, [(5S)-5-amino-1'-[7-(2-fluorophenyl)-6-methyl-pyrazolo[1,5-a]pyrazin-4-yl]spiro[5,7-dihydrocyclopenta[c]pyridine-6,4'-piperidine]-1-yl]methanol] | 8

Now from value to compound:

IC50 [nM] | Compound
7 | COc1cccc(-c2c(C)nc(N3CCC4(CC3)Cc3ncccc3[C@H]4N)c3ccnn23)c1F [Compound 4, (5S)-1'-[7-(2-fluoro-3-methoxy-phenyl)-6-methyl-pyrazolo [1 ,5-a]pyrazin-4-yl]spiro[5,7-dihydrocyclopenta[b]pyridine-6,4'-piperidine] -5-amine]
4 | COc1ccc(-c2c(C)nc(N3CCC4(CC3)Cc3ncccc3[C@H]4N)c3ccnn23)c(F)c1F [Compound 175, (5 S)-1'-[7-(2,3-difluoro-4-methoxy-phenyl)-6-methyl-pyrazolo[1,5-a]pyrazin-4-yl]spiro[5,7-dihydrocyclopenta[b]pyridine-6,4'-piperidine]-5-amine]
3 | Cc1nc(N2CCC3(CC2)Cc2ncccc2[C@H]3N)c2ccnn2c1-c1ccc2c(c1)OCCO2 [Compound 183, (5S)-1'-[7-(2,3-dihydro-1,4-benzodioxin-6-yl)-6-methyl-pyrazolo[1,5-a]pyrazin-4-yl]spiro[5,7-dihydrocyclopenta[b]pyridine-6,4'-piperidine]-5-amine]
3 | Cc1nc(N2CCC3(CC2)Cc2ncccc2[C@H]3N)c2ccnn2c1-c1ccc2c(c1F)OCCO2 [Compound 34, (5S)-1'-[7-(5-fluoro-2,3-dihydro-1,4-benzodioxin-6-yl)-6-methyl-pyrazolo[1,5-a]pyrazin-4-yl]spiro[5,7-dihydrocyclopenta[b]pyridine-6,4'-piperidine]-5-amine]
6 | Cc1cnc2c(c1)[C@@H](N)C1(CCN(c3nc(C)c(-c4ccccc4F)n4nccc34)CC1)C2 [Compound 8, (5S)-1'-[7-(2-fluorophenyl)-6-methyl-pyrazolo[1,5-a]pyrazin-4-yl]-3-methyl-spiro[5,7-dihydrocyclopenta[b]pyridine-6,4'-piperidine] -5-amine]
